Data from ChEMBL document CHEMBL4014353, “1,2,4-Triazolo-[1,5-a]pyridine HIF Prolylhydroxylase Domain-1 (PHD-1) Inhibitors With a Novel Monodentate Binding Interaction” (J Med Chem, 2017).
Values after ≈ are worked out from the molar mass of the structure shown.

Columns and labels:
[1] = AUC (0 to t) in C57BL/6 mouse at 3 mg/kg, po administered as cassette dose; format: ADME, organism-based; settings: in vivo
[2] = Cmax in C57BL/6 mouse at 3 mg/kg, po administered as cassette dose; format: ADME, organism-based; design: dose 3 mg/kg, route oral; settings: in vivo
[3] = Oral bioavailability in C57BL/6 mouse at 3 mg/kg administered as cassette dose; format: ADME, organism-based; settings: in vivo
[4] = Clearance in C57BL/6 mouse at 0.5 mg/kg, iv administered as cassette dose; format: ADME, organism-based; settings: in vivo
[5] = Protein binding in mouse plasma; format: ADME, cell-free; settings: read-out: PPB (converted)
[6] = Kinetic solubility of the compound by LC-UV/MS analysis; format: physicochemical; settings: read-out: Kinetic_solubility
[7] = Permeability of the compound after 5 hrs by PAMPA; format: physicochemical; settings: read-out: permeability
[8] = Ratio of drug level in C57BL/6 mouse brain to plasma at 3 mg/kg, po or 0.5 mg/kg, iv administered as cassette dose; format: ADME, organism-based; settings: brain and plasma, read-out: BPR
[9] = Ratio of unbound brain to plasma concentration in C57BL/6 mouse at 3 mg/kg, po or 0.5 mg/kg, iv administered as cassette dose; format: ADME, organism-based; settings: brain and plasma, read-out: K(p,uu,brain)

Row | AUC(0-t) [1] | Cmax [2] | bioavailability [3] | clearance [4] | fraction unbound [5] | solubility kinetic [6] | Papp at 5 h [7] | Kp [8] | Kp uu [9] | SMILES
1 | 176 ng·h/mL | 0.8 µM | 40% | 108 mL/min/kg | 0.287 | 44 µM (≈ 9.69 µg/mL) | 24.6 ×10⁻⁶ cm/s | 0.95 | 1.11 | N#Cc1ccc(-c2cccc3ncnn23)cc1
2 | 1870 ng·h/mL | 5.58 µM | 100% | 31.6 mL/min/kg | 0.21 | 189 µM (≈ 44.3 µg/mL) | 40.9 ×10⁻⁶ cm/s | 0.88 | 1.59 | Cc1cc(C#N)ccc1-c1cccc2ncnn12
3 | 3660 ng·h/mL | 5 µM | 100% | 17.5 mL/min/kg | 0.486 | 99 µM (≈ 28.8 µg/mL) | 2.9 ×10⁻⁶ cm/s | 0.03 | 0.02 | CC(=O)Nc1cc(-c2ccc(C#N)cc2C)n2ncnc2c1
4 | 40000 ng·h/mL | 14.8 µM | 39% | 0.48 mL/min/kg | 0.302 | 151 µM (≈ 37.6 µg/mL) | 5.9 ×10⁻⁶ cm/s | 0.21 | 0.39 | Cc1cc(C#N)ccc1-c1cc(N)cc2ncnn12
